Tests used:
TNF-α = assay: ELISA, TNF-α release in NHEK; type: cell-based, human; conditions: 1 µM with 300 µM carvacrol, 24 h
Source text: (§1) Constitutive activation of TRPV3 due to continuous stimulation or the presence of Olmsted mutations causes noticeable skin inflammation due to the increased secretion of pro-inflammatory cytokines from the keratinocytes. Besides, in atopic dermatitis (AD), cytokine release from keratinocytes contributes to the inflammatory environment, which drives many characteristic AD symptoms. Therefore, we determined the effect of TRPV3 activation on cytokine release instead of TRPV3 expression and evaluated whether alpha-mangostin suppressed TRPV3-mediated cytokine secretion in normal human keratinocytes. The levels of secreted cytokines (interleukin (IL)-6, IL-8, and tumor necrosis factor-alpha (TNF-α)) were measured using enzyme-linked Immunosorbent assay (ELISA) kits due to their high sensitivity and quantitation ability. The cells were induced with 300 µM carvacrol, with or without 1 µM alpha-mangostin, and 10 µM 74a.
(§2) Figure 5 Alpha-mangostin (α-MG) inhibited carvacrol-induced cytokine release in NHEK cells and rescued carvacrol-induced cell death. (A) Alpha-mangostin inhibited the carvacrol-induced release of IL-8 and IL-6 in NHEK. Cells were induced by 300 µM carvacrol with or without either 1 µM alpha-mangostin or 10 µM 74a for 24 h before the ELISA assay. (B) Alpha-mangostin reduced cell death caused by carvacrol in human keratinocytes. […]

IL-6 = assay: ELISA, carvacrol-induced IL-6 release in NHEK; type: cell-based, human; conditions: 1 µM with 300 µM carvacrol, 24 h
Source text: as §1, §2

TRPA1 = target: T1, TRPA1 (Homo sapiens, UniProt O75762); assay: Whole-cell patch-clamp, AITC-activated TRPA1 current in transfected HEK 293T cells; type: cell-based; conditions: 100 µM AITC
T1 construct: host or cells: HEK 293T (transient transfection)
T1 sequence (O75762 whole entry, species assumed): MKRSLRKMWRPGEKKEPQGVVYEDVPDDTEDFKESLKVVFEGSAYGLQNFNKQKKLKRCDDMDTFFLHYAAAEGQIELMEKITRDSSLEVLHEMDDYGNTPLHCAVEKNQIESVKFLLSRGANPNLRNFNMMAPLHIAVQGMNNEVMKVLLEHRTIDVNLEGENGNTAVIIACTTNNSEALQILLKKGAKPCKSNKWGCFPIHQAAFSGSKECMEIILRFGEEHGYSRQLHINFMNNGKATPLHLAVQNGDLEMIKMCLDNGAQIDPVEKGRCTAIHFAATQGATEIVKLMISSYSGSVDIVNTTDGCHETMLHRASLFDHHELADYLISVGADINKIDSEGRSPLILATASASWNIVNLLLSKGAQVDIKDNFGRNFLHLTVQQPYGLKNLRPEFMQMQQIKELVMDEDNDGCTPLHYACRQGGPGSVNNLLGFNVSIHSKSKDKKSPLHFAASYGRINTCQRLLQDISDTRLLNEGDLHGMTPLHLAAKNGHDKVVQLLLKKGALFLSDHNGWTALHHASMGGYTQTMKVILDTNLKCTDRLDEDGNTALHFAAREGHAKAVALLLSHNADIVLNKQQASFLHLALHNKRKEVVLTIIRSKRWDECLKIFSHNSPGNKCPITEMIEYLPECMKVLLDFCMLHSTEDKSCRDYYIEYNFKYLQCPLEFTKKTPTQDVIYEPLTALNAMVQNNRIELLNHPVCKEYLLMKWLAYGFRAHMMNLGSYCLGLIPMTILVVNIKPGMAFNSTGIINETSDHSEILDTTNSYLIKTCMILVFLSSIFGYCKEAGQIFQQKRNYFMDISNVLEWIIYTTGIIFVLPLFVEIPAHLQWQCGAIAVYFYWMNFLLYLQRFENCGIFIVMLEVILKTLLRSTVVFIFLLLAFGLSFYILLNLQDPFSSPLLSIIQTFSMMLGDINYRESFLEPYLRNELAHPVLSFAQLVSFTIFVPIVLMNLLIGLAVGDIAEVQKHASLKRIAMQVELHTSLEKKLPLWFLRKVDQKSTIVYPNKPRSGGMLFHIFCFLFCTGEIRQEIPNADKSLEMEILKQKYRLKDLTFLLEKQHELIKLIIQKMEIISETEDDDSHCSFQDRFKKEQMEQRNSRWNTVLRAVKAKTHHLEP
Procedure: Next, we examined the impact of alpha-mangostin on other TRP channels. TRPV4- and TRPA1 trasfected HEK 293T were activated using 300 nM GSK-1016790A (GSK101) and 100 µM allyl isothiocyanate (AITC), respectively. […] The dose–response curves were obtained by applying various concentrations of alpha-mangostin (Figure 2C).
Figure 2 Alpha-mangostin (α-MG) inhibited the TRPV3 current more effectively than other TRP channels. (A) Representative I–V curves from whole-cell recordings illustrate the inhibitory effect of 0.3 µM alpha-mangostin on TRPV4 and TRPA1 channels (GSK101: GSK-1016790A, a TRPV4 agonist; RR: ruthenium red, a TRP inhibitor; AITC: allyl isothiocyanate, a TRPA1 agonist; A967: A-967079, a TRPA1 inhibitor). Currents were elicited with ramp pulses from −100 to +100 mV over 1 s, which were repetitively applied every 20 s; the holding potential was set at 0 mV. (B) Summary of the inhibition percentage after 0.3 µM alpha-mangostin treatment at −100 mV. […]
In the whole-cell configuration, voltage ramps from −100 to +100 mV over 1 s were applied every 20 s and the holding potential was set at 0 mV. Sampling at 10 kHz and low-pass filtering at 5 kHz (w-c) were applied for all recorded currents. Recorded data were analyzed using Clampfit ver. […]

TRPV1 = conditions: read-out: IC50 (µM), channel inhibited TRPV1; cited from earlier work

Which “Effect on TNF-α levels” value (TNF-α) does the source give for `COc1c(O)cc2oc3cc(O)c(CC=C(C)C)c(O)c3c(=O)c2c1CC=C(C)C` [Alpha-mangostin] here?
The value was “no changes”.

And the “Effect on IL-6 levels” value (IL-6)?
The value was “slightly decreased”.

What about the inhibition at 0.3 µM (TRPA1; HEK-293T, 0.3 µM, −100 mV, read-out: Inhibition percentage of TRPA1 current) of the same compound?
The inhibition at 0.3 µM was 24.8%.

And the IC50 (TRPA1; transfected HEK 293T, read-out: IC50, inhibition of TRPA1 current)?
Its IC50 is 5.09 ± 2.21 µM.

And the IC50 (TRPV1)?
The IC50 was 0.43 ± 0.27 µM.
